Values joined by “and” are separate entries in the source; they are usually repeats but may differ in a detail not shown here. Equal entries are not always repeated. Where two headings read alike, the source gives them in different places. One block for each compound: values may come before it.
Legend:
[1] = Pharmacokinetics of MEPB and TA in plasma and tissues after a single intraperitoneal injection; format: in vivo, male FVB/NJ mice; settings: for bioavailability in muscle, brain, and spinal cord / bioavailability in SBMA-affected tissues: mice
Protocol: MEPB and TA concentrations in plasma, liver, muscle, testes, brain, and spinal cord of male FVB/NJ mice were measured at multiple time points (5 min to 48 h) after a single intraperitoneal injection of either 100 mg/kg body weight MEPB or 50 mg/kg body weight TA. MEPB or TA and the internal standard (IS) SLV320 (Tocris Biosciences) were extracted from plasma and tissue homogenate samples with methyl tert-butyl ether. A 25-μL aliquot of sample was mixed with 10 μL IS (100 ng/mL). To this, 600 μL methyl tert-butyl ether was added and vortexed for 5 min. After centrifugation at 10,000 rpm for 5 min, the organic layer was then transferred to a glass vial and dried in a CentriVap Console (Labconco) at 35° C. for 25 min. The dried extracts were then reconstituted with 400 μL methanol, and an aliquot of 3 μL was injected onto the chromatographic system. All chemicals were HPLC grade or higher and were obtained from Fisher Scientific (Fair Lawn) unless otherwise specified. Quantitation of MEPB and TA was performed using an API 4000 mass spectrometer (AB SCIEX) equipped with a Prominence Ultra-Fast Liquid Chromatograph (UFLCXR) system (Shimadzu). […] Mass spectrometric analysis was performed with the turbo ion spray in positive ionization mode. All MS data were acquired using Analyst 1.5.2 software and processed using MultiQuant 2.1.1 software (SCIEX).
For all matrices (plasma, liver, muscle, testes, brain, and spinal cord), the lower limit of quantification (LLOQ) of MEPB was 2.5 ng/mL with a calibration range of 2.5 ng/mL to 100 ng/mL. However, due to dilution during homogenization, the effective LLOQ was 15 ng/mL for solid tissues. The LLOQ of TA was 5 ng/mL for plasma and 60 ng/mL for tissues. […] The MEPB concentration-time (Ct) data for liver, muscle, testes, brain, and spinal cord were grouped by mouse and analyzed using a two-stage, semiphysiologic, nonlinear mixed effects approach with maximum likelihood expectation maximization in ADAPT 5. The pooled arithmetic mean Ct data were subjected to noncompartmental analysis by tissue using WinNonlin 6.4 (Pharsight, a Cetara Company). All PK parameters were calculated using standard formulae^43. Parameters estimated for all matrices included observed maximum concentration (Cmax), time of Cmax (Tmax), concentration at the last observed time point (Clast), time of Clast (Tlast), and area under the Ct curve (AUC). When applicable, the terminal phase was defined as the three time points at the end of the Ct profile, excluding Cmax, and the elimination rate constant (Kel) was estimated using an unweighted log-linear regression of the terminal phase. The terminal elimination half-life (T½) was estimated as 0.693/Kel, and the AUC from time 0 to infinity ([…]) was estimated as the AUC to the last time point (AUClast)+Clast/Ke. Apparent clearance (CL/F=Dose/AUCinf), and apparent terminal volume of distribution (Vz/F) were also calculated.

[2] = tested on: flies expressing human AR52Q in pan-neuronal tissues (ELAV>UAS-AR52Q); experiment: Viability of SBMA flies (rescue of DHT-induced lethality); format: in vivo, Drosophila; settings: flies reared on food containing 1 mM DHT and compound (TA, MEPB 0 to 400 μM)
Source text: UAS-AR52Q, UAS-AR52Q-K720A, and UAS-AR66Q-E897K fly stocks were generated as previously described^8. Fly stocks were crossed to various GAL4 driver lines (ELAV-GAL4 for pan-neuronal, OK371-GAL4 for motor neuron, GMR-GAL4 for eye) to induce expression of the AR transgene in a tissue-specific manner in fly vials containing fly food with either vehicle (1% ethanol +/−0.1% DMSO) or drugs. Upon the presence of progeny, parental flies were removed, and F1 flies were scored for phenotypic analysis. Viability was determined as previously described^40. Briefly, the population frequency of adult F1 SBMA flies (ELAV>UAS-AR52Q or OK371>UAS-AR52Q) and control flies (GAL4-ELAV; CyO-GFP) were determined by the presence or absence of the CyO phenotypic marker. At least three independent biological replicates (F0 crosses) were performed with new drug/food preparations for each treatment group, and a total of at least 50 flies were scored for each treatment group. To determine locomotor activity of SBMA flies, adult F1 flies (OK371>UAS-AR52Q) reared on food containing vehicle or drug were allowed to walk for 90 seconds in one well of a 12-well tissue culture plate while video was recorded using a Leica M205C stereomicroscope and Leica DFC320 digital camera. Videos were recorded for at least 15 flies per treatment group. Tracing of fly movement and analysis of displacement and velocity were performed using ImageJ software. Preparation and staining of larval neuromuscular junctions and ventral ganglions were performed as previously described^8.

[3] = single intraperitoneal injection of 100 mg/kg MEPB or 50 mg/kg TA

Tlast (time of Clast) ([1]; TA in brain, single intraperitoneal injection of 50 mg/kg TA): 4 h
Tlast (time of Clast) ([1]; TA in liver, single intraperitoneal injection of 50 mg/kg TA): 24 h
Tlast (time of Clast) ([1]; TA in muscle, single intraperitoneal injection of 50 mg/kg TA): 8 h
Tlast (time of Clast) ([1]; TA in plasma, single intraperitoneal injection of 50 mg/kg TA): 48 h
Tlast (time of Clast) ([1]; TA in spinal cord, single intraperitoneal injection of 50 mg/kg TA): 4 h
Tlast (time of Clast) ([1]; TA in testis, single intraperitoneal injection of 50 mg/kg TA): 8 h
Cmax ([1]; male, FVB/NJ, mouse, ip, TA conc. in brain, single intraperitoneal injection of 50 mg/kg TA): 700 nM and 194 ng/mL
Cmax ([1]; male, FVB/NJ, mouse, ip, TA conc. in liver, single intraperitoneal injection of 50 mg/kg TA): 260 µM and 67600 ng/mL
Cmax ([1]; male, FVB/NJ, mouse, ip, TA conc. in muscle, single intraperitoneal injection of 50 mg/kg TA): 4.8 µM and 1250 ng/mL
Cmax ([1]; male, FVB/NJ, mouse, ip, TA conc. in plasma, single intraperitoneal injection of 50 mg/kg TA): 223 µM and 13400 ng/mL
Cmax ([1]; male, FVB/NJ, mouse, ip, TA conc. in spinal cord, single intraperitoneal injection of 50 mg/kg TA): 2.1 µM and 554 ng/mL
Cmax ([1]; male, FVB/NJ, mouse, ip, TA conc. in testis, single intraperitoneal injection of 50 mg/kg TA): 11.6 µM and 3030 ng/mL
Tmax ([1]; male, FVB/NJ, mouse, ip, TA in brain, single intraperitoneal injection of 50 mg/kg TA): 1 h
concentration at 4 hr ([1]; male, FVB/NJ, mouse, ip, TA in brain, single intraperitoneal injection of 50 mg/kg TA, read-out: Clast (concentration at the last observed time point)): 66.7 ng/mL
Tmax ([1]; male, FVB/NJ, mouse, ip, TA in liver, single intraperitoneal injection of 50 mg/kg TA): 1 h
concentration at 24 hr ([1]; male, FVB/NJ, mouse, ip, TA in liver, single intraperitoneal injection of 50 mg/kg TA, read-out: Clast (concentration at the last observed time point)): 508 ng/mL
Tmax ([1]; male, FVB/NJ, mouse, ip, TA in muscle, single intraperitoneal injection of 50 mg/kg TA): 1 h
concentration at 8 hr ([1]; male, FVB/NJ, mouse, ip, TA in muscle, single intraperitoneal injection of 50 mg/kg TA, read-out: Clast (concentration at the last observed time point)): 119 ng/mL
Tmax ([1]; male, FVB/NJ, mouse, ip, TA in plasma, single intraperitoneal injection of 50 mg/kg TA): 1 h
concentration at 48 hr ([1]; male, FVB/NJ, mouse, ip, TA in plasma, single intraperitoneal injection of 50 mg/kg TA, read-out: Clast (concentration at the last observed time point)): 19.8 ng/mL
Tmax ([1]; male, FVB/NJ, mouse, ip, TA in spinal cord, single intraperitoneal injection of 50 mg/kg TA): 1 h
concentration at 4 hr ([1]; male, FVB/NJ, mouse, ip, TA in spinal cord, single intraperitoneal injection of 50 mg/kg TA, read-out: Clast (concentration at the last observed time point)): 84.6 ng/mL
Tmax ([1]; male, FVB/NJ, mouse, ip, TA in testis, single intraperitoneal injection of 50 mg/kg TA): 1 h
concentration at 8 hr ([1]; male, FVB/NJ, mouse, ip, TA in testis, single intraperitoneal injection of 50 mg/kg TA, read-out: Clast (concentration at the last observed time point)): 150 ng/mL
bioavailability in muscle, brain, and spinal cord [1]: poor bioavailability
bioavailability in SBMA-affected tissues [1, 3]: poor bioavailability
Structure (SMILES): Cc1c(Cl)cccc1Nc1ccccc1C(=O)O [TA, tolfenamic acid]
SBMA fly viability [2]: significantly increased SBMA fly viability in a dose-dependent manner

Structure (SMILES): Cc1ccc(OCCn2c(SCCOc3ccccc3)nc3ccccc32)cc1 [MEPB, 1-[2-(4-methylphenoxy)ethyl]-2-[(2-phenoxyethyl)sulfanyl]-1H-benzimidazole]
penetration and duration in muscle, spinal cord, and testes ([1]; NTG mice, single intraperitoneal injection of 100 mg/kg MEPB or 50 mg/kg TA): marked penetration and duration
bioavailability in muscle, brain, and spinal cord [1]: good bioavailability
bioavailability in SBMA-affected tissues [1, 3]: sufficient bioavailability
SBMA fly viability [2]: significantly increased SBMA fly viability in a dose-dependent manner

Reference: patent US11707449B2, “Methods and formulations for treatment of spinobulbar muscular atrophy” (ST. JUDE CHILDREN'S RESEARCH HOSPITAL, INC., priority 2017, dated 2023)
